The values that follow are results of earlier work, collected in patent publication US20260327216A1, “SUBSTITUTED OXAZOLONE COMPOUND FOR DECREASING LEVELS OF IKZF I-4 PROTEINS” (BRISTOL-MYERS SQUIBB COMPANY, priority 2023, published 2026).

The test system of one series is solid tumors. The settings on record: patients with solid tumors / advanced malignancies; cited from earlier work.
Series [1] relates to highly immunogenic syngeneic tumors. Particulars: engineered mouse models; Geng et al., 2022; cited from earlier work.
Another series relates to T and NK cell functions. The settings on record: preclinical and clinical studies; cited from earlier work.

Regarding `Cc1nc2cccc(N)c2c(=O)n1C1CCC(=O)NC1=O` (centres unmarked) [avadomide], the “clinical response in patients with solid tumors” value (“clinical response in patients” below) in the series with solid tumors is given as “modest responses of stable disease”.
In the case of `Nc1cccc2c1CN(C1CCC(=O)NC1=O)C2=O` (centres unmarked) [lenalidomide], the “antitumor immune responses against highly immunogenic syngeneic tumors” value in series [1] was “modestly increase antitumor immune responses”. For the same molecule, in the series on T and NK cell functions, the “effect on T and NK cell functions” value was “augment T and NK cell functions”. Further, the “clinical response in patients” value with solid tumors is given as “modest responses of stable disease”.
On to `Nc1cccc2c1C(=O)N(C1CCC(=O)NC1=O)C2=O` (centres unmarked) [pomalidomide], for which the “clinical response in patients” value with solid tumors is reported as “modest responses of stable disease”.
